± gives the expanded uncertainty stated by the source.
Details: Liquid; for mass density: 101.33 kPa, Vibrating tube method; for Normal boiling temperature: Ebulliometric method (Recirculating still)

| mass density (303.15 K) | Normal boiling temperature | mass density (298.15 K) | mass density (288.15 K) | SMILES |
| --- | --- | --- | --- | --- |
| 848.59 ± 0.13 kg/m3 | 42.00 ± 0.2 °C |  |  | COCOC [dimethoxymethane] |
|  | 90.00 ± 0.2 °C | 1063.3 ± 0.12 kg/m3 |  | COC(=O)OC [dimethyl carbonate] |
|  | 31.50 ± 0.2 °C |  | 980.82 ± 0.11 kg/m3 | COC=O [methyl methanoate] |

From the NIST ThermoML archive (doi:10.1016/j.fluid.2015.03.049)
